Consider three compounds from patent US6025356A, “Disubstituted trans-3,4,4a,5,6,10b-hexahydro-2H-naphth[1,2-b]-1,4-oxazines” (Adir et Compagnie, priority 1997, dated 2000).

Experiment [1] concerns the target T1, human dopamine D2 receptor (Homo sapiens, UniProt P14416).
T1 construct: expressed in transfected cells
The experiment can be described thus: human D2 and D3 receptor binding study (D2). As for the experimental part: (§1) A. In vitro: human D2 and D3 receptor binding study
(§2) CHO (Chinese Hamster Ovary) cells are transfected in a stable manner with the gene encoding the human dopamine D2 or D3 receptor in accordance with methods known from the literature. The native cells are deficient in the enzyme DHFR (DiHydroFolate Reductase). […] The transfections are carried out using Lipofectin (Gibco). The CHO cells co-transfected with the human D2 receptor and the phleomycin resistance gene are selected for their resistance to the presence of that antibiotic in the culture medium. The cells transfected with the human D3 receptor are selected in the presence of methotrexate in a medium containing no hypoxanthine/thymidine. The compositions of the culture media used are: for CHO-D2 : DMEM (Dulbecco's Modified Eagle Medium) supplemented with 10% foetal calf serum and hypoxanthine/thymidine; and for CHO-D3 : DMEM supplemented with 10% dialysed foetal calf serum. The cells are harvested at confluence and the membranes are then prepared.
(§3) After a few minutes in the presence of 0.2% trypsin, the cells are recovered and centrifuged at 2,000 g for 5 minutes. […]
(§4) The ranges of concentration of each compound include at least seven points determined in triplicate, each experiment being repeated at least twice.
(§5) The recovered filters are then counted using a gamma counter. […]

Experiment [2] is described as follows: "Rotations" induced by dopaminergic agonists in rats having a unilateral lesion of the Substantia nigra. Type of experiment: in vivo, male Wistar rats. As to conditions: Rattus norvegicus, sc; read-out: dose from which active in the rotation test.
For experiment [3], the system named is dopaminergic cells in the ventral tegmentum area of the rat. The experiment can be described thus: Test recording the unitary extracellular electrical activity in the ventral tegmentum area of the rat. It is filed as in vivo. As to conditions: n = 4. As to the method: 1. Test recording the unitary extracellular electrical activity in the ventral tegmentum area of the rat
The administration of a dopaminergic agonist decreases the discharge frequency of neurons in a dose-dependent manner. That effect is reversed by haloperidol, a dopaminergic antagonist.
The rats are anaesthetised with chloral hydrate (400 mg/kg, i.p.) and placed in a stereotactic apparatus (Unimecanique, France) after catheterisation of the femoral vein. The level of anaesthesia is maintained by i.p. administration of chloral hydrate every hour; the rectal temperature is maintained at 37±1° C. by means of a thermostatically controlled heated cover. A tungsten microelectrode (10 M.OMEGA., 1 μm) is inserted using an electronic microinsertion device (Unimecanique, France) into the ventral tegmentum area (AP: -5.5/bregma; L: 0.7; H: 7.0-8.5/dura; Paxinos and Watson atlas, 1986). The potentials of the dopaminergic cells are recognised by their morphology (triphasic potentials+/-/+, of a duration greater than 3 msec), their discharge rhythm, whether regular or in bursts of decreasing amplitude, and their discharge frequency, which is from 2 to 8 Hz. A single cell per animal is used for the recording.
After a period≥5 min. (basal activity) and a first injection of carrier (distilled water to which a few drops of dilute lactic acid have been added; pH adjusted to 5 with 1N NaOH), the products of the invention are administered intravenously in cumulatively increasing doses at intervals of 2-3 min..
Acquisition of the data is effected by the software Spike2 (Cambridge Electronic Design, England). The discharge frequency is measured over one minute at the maximum variation between each injection and is expressed as a percentage variation in relation to the basal activity (average of the 5 minutes preceding the first treatment) defined as 100%. The effect of the products is evaluated statistically by a variance analysis over repeated measurements, followed by a Newman-Keuls test for comparing the effects of different doses with the effect of the carrier.

A further experiment can be described thus: Forced swimming test. Type of experiment: in vivo, rat. An excerpt: The forced swimming test (Porsolt R. et al, Eur. J. Pharmacol., 1978, 47, 379-91) is a behavioural test which comprises inducing a state of despair in the rat by placing the naive animal in an enclosure full of water, from which it cannot escape, for a period of fifteen minutes. For the first five to ten minutes the rat struggles vigorously, but finally adopts an immobile posture during the last part of the test. Placed in the same enclosure the next day, the animal remains immobile for the majority of the test (5 minutes' duration). The anti-depressants reduce the duration of immobility of the rat during the test.
The experiment is carried out over two days, with a 24-hour interval, on rats of an average weight of 170 g, housed the day before in individual cages, with free access to food and drink.
On the first day, each rat is placed for fifteen minutes in a glass cylinder (20 cm diameter ×40 cm high) filled to a height of 15 cm with water maintained at 25° C. On the second day, the animal is placed in a cylinder again for a period of five minutes; the total period of immobility (in seconds) of the rat is measured. The product or solvent is administered to the animal thirty minutes before the beginning of the test.

Experiment [4] deals with T2, human dopamine D3 receptor (Homo sapiens, UniProt P35462).
T2 construct: expressed in transfected cells
T2 sequence (P35462 whole entry): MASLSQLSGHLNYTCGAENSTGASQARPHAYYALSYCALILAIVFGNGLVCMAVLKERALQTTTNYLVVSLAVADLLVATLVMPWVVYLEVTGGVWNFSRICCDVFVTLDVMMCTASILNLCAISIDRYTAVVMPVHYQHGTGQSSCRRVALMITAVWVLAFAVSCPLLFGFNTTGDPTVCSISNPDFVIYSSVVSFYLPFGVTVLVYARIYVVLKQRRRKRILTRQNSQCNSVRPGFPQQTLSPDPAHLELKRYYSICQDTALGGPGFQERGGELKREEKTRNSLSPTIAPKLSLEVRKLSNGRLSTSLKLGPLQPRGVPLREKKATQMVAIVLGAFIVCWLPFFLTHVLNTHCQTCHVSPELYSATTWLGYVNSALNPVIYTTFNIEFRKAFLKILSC
The experiment can be described thus: human D2 and D3 receptor binding study (D3). As to the method:
as §1, §2, §3, §4, §5

Setting [5] is: [125I]-iodosulpride, CHO membranes, 30 min at 30° C., pKi = -log Ki.

T1 sequence (P14416 whole entry): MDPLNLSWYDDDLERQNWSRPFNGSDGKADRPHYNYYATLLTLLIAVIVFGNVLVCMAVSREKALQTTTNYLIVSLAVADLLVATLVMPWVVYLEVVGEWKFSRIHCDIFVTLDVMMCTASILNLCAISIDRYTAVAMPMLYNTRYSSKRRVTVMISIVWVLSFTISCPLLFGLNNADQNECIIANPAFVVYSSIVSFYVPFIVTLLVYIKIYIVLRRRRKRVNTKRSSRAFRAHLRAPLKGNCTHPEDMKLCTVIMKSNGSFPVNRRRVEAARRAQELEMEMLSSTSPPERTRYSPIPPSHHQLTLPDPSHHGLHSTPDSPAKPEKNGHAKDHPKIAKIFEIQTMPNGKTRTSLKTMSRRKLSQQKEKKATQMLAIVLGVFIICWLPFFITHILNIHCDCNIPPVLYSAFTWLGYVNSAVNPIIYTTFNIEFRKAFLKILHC

For the compound `CCCN1CCO[C@@H]2c3cc(C(N)=O)ccc3CC[C@H]21` (single isomer, unassigned) [Example 3, (+)-Trans-3,4,4a,5,6,10b-hexahydro-9-carbamoyl-4-propyl-2H-naphtho[1,2-b]-1,4-oxazine], the inhibitory constant (Ki) (as a rule, a dissociation constant, usually derived from enzyme kinetics or from competition with a known ligand) in experiment [1] (setting [5]) was 316 nM; in experiment [4] (setting [5]) it was 10 nM. Moreover, the minimal effective dose in experiment [2] was 0.04 mg/kg. Moreover, the “discharge frequency, percentage in relation to basal activity (100%)” value in experiment [3] (0.5 μg/kg i.v., cumulative doses, mean ± standard error of the mean) came to 80.4 ± 5.54%; in experiment [3] (1 μg/kg i.v., cumulative doses, mean ± standard error of the mean, p ≤ 0.05), 56.6 ± 11.4%; in experiment [3] (2 μg/kg i.v., cumulative doses, mean ± standard error of the mean, p ≤ 0.05), 25.0 ± 8.68%; in experiment [3] (4 μg/kg i.v., cumulative doses, mean ± standard error of the mean, p ≤ 0.05) it was 1.56 ± 1.12%; in experiment [3] (8 μg/kg i.v., cumulative doses, p ≤ 0.05), 0.00%. In addition, in “Forced swimming test” (Rattus norvegicus, sc, read-out: ID50 (period of immobility)), the ED50 is 0.41 mg/kg. The “period of immobility (result in words)” value in the experiment “Forced swimming test” (s.c.) is “reduces the period of immobility of the animal in a dose-dependent manner”.

Turning to `O=C(CCCN1CCC(O)(c2ccc(Cl)cc2)CC1)c1ccc(F)cc1` [haloperidol, reference compound], the “discharge frequency, percentage in relation to basal activity (100%)” value in experiment [3] (haloperidol 16 μg/kg i.v., reversal after cumulative doses of Example 3, mean ± standard error of the mean) was 110.5 ± 14.9%.

Regarding “[^125 I]-iodosulpride [[125I]-iodosulpride, reference compound]”, the dissociation constant (Kd) (as a rule, a measure of binding affinity in units of concentration) in experiment [1] (radioligand, read-out: Kd (dissociation constant) for the human D2 receptor) was 0.5 nM; in experiment [4] (radioligand, read-out: Kd (dissociation constant) for the human D3 receptor) it was 1.31 nM.
